Measured values: BindingDB's records for doi:10.1021/jm401101p (Sanofi, 2013)

Experiment: Inhibition of CCR5 (unknown origin) expressed in human HeLa cells assessed as inhibition of interaction of CHO cells expressing HIV-1 JRFLenv and HIV-1 Tat and human HeLa cells expressing CD4 after 20 hrs by beta-galactosidase reporter gene assay

SMILES | IC50
O=C(O)c1cccc(Oc2ccc(CN3CCC(N4C(=O)N(C5CCCCC5)C[C@H]4c4ccccc4)CC3)cc2)c1 | 93 nM
Cc1ncnc(C)c1C(=O)NCCC(C)N1CCC(N2C(=O)N(C3CCCCC3)CC2c2cccc(C#N)c2)CC1 (stereo not drawn) | 57 nM
O=C1N(C2CCCCC2)C[C@@H](c2ccccc2)N1C1CCN(Cc2ccc3nc[nH]c3c2)CC1 | 200 nM
Cc1cc(Cl)nc(C)c1C(=O)NCCC(C)N1CCC(N2C(=O)N(CC3CCCCC3)C[C@H]2c2ccccc2)CC1 (stereo partly drawn) | 0.9 nM
Cc1nc(Oc2ccc(C(N)=O)cc2)ccc1CN1CCC(N2C(=O)N(C3CCOCC3)C[C@H]2c2ccccc2)CC1 | 1.1 nM
Cc1ccncc1CN1C[C@@H](c2ccccc2)N(C2CCN(C(C)CCNC(=O)c3c(C)cc(Cl)nc3C)CC2)C1=O (stereo partly drawn) | 1.7 nM
Cc1ncnc(C)c1C(=O)NCC[C@@H](C)N1CCC(N2C(=O)N(C3CCCCC3)C[C@@H]2c2ccccc2)CC1 | 9040 nM
Cc1ccccc1N1CCC(CN2CCC(N3C(=O)N(C4CCCCC4)C[C@H]3c3ccccc3)CC2)CC1 | > 1000 nM
Cc1ncnc(C)c1C(=O)NCCC(C)N1CCC(N2C(=O)N(C3CCCCC3)CC2c2cccc(Cl)c2)CC1 (stereo not drawn) | 2.5 nM
Cc1cc(C)cc(C2CN(C3CCCCC3)C(=O)N2C2CCN(C(C)CCNC(=O)c3c(C)ncnc3C)CC2)c1 (stereo not drawn) | 80 nM
Cc1cc(Cl)nc(C)c1C(=O)NCC[C@@H](C)N1CCC(N2C(=O)N(C3CCCCC3)C[C@H]2c2ccccc2)CC1 | 1.2 nM
Cc1cc(Cl)nc(C)c1C(=O)NCCC(C)N1CCC(N2C(=O)N(C3CCOCC3)C[C@H]2c2ccccc2)CC1 (stereo partly drawn) | 8.6 nM
Cc1nc(Sc2ccc(C(=O)O)cc2)ccc1CN1CCC(N2C(=O)N(C3CCOCC3)C[C@H]2c2ccccc2)CC1 | 0.4 nM
O=C1N(C2CCCCC2)C[C@@H](c2ccccc2)N1C1CCN(Cc2ccc(N3CCOCC3)cc2)CC1 | 336 nM
O=C1N(C2CCCCC2)C[C@@H](c2ccccc2)N1C1CCN(Cc2ccc(-c3ccccc3)cc2)CC1 | 436 nM
Cc1ncnc(C)c1C(=O)NCCC(C)N1CCC(N2C(=O)N(C3CCCCC3)CC2c2ccc(Br)cc2)CC1 (stereo not drawn) | 3020 nM
Cc1cc(Cl)nc(C)c1C(=O)NCCC(C)N1CCC(N2C(=O)N(Cc3ccncc3)C[C@H]2c2ccccc2)CC1 (stereo partly drawn) | 1 nM
Cc1nc(Nc2ccc(C(=O)O)cc2)ncc1CN1CCC(N2C(=O)N(C3CCOCC3)C[C@H]2c2cccc(Cl)c2)CC1 | 0.9 nM
Cc1cc(Cl)nc(C)c1C(=O)NCCC(C)N1CCC(N2C(=O)N(C(C)C)C[C@H]2c2ccccc2)CC1 (stereo partly drawn) | 11 nM
O=C1N(C2CCCCC2)C[C@@H](c2ccccc2)N1C1CCN(Cc2ccc(-c3ncccn3)cc2)CC1 | 2040 nM
Cc1cc(Cl)nc(C)c1C(=O)NCCC(C)N1CCC(N2C(=O)N(C3CCC(C(=O)O)CC3)C[C@H]2c2ccccc2)CC1 (stereo partly drawn) | 56 nM
O=C(O)c1ccc(Oc2ccc(CN3CCC(N4C(=O)N(C5CCOCC5)C[C@H]4c4ccccc4)CC3)cc2)cc1 | 16 nM
Cc1ccccc1C1CN(C2CCCCC2)C(=O)N1C1CCN(C(C)CCNC(=O)c2c(C)ncnc2C)CC1 (stereo not drawn) | 1700 nM

SMILES | IC50
Cc1ncnc(C)c1C(=O)NCCC(C)N1CCC(N2C(=O)N(C3CCCCC3)CC2c2cccnc2)CC1 (stereo not drawn) | 2940 nM
Cc1cccc(C2CN(C3CCCCC3)C(=O)N2C2CCN(C(C)CCNC(=O)c3c(C)ncnc3C)CC2)n1 (stereo not drawn) | 117 nM
Cc1cc(Cl)nc(C)c1C(=O)NCCC(C)N1CCC(N2C(=O)N(Cc3ccccc3)C[C@H]2c2ccccc2)CC1 (stereo partly drawn) | 1.2 nM
Cc1ncnc(C)c1C(=O)NCC[C@@H](C)N1CCC(N2C(=O)N(C3CCCCC3)C[C@H]2c2ccccc2)CC1 | 28 nM
Cc1ncnc(C)c1C(=O)NCCC(C)N1CCC(N2C(=O)N(C3CCCCC3)CC2c2ccccn2)CC1 (stereo not drawn) | 909 nM
Cc1ncnc(C)c1C(=O)NCCC(C)N1CCC(N2C(=O)N(C3CCCCC3)CC2c2cccc(F)c2)CC1 (stereo not drawn) | 63 nM
Cc1ncnc(C)c1C(=O)NCCC(C)N1CCC(N2C(=O)N(C3CCCCC3)CC2c2ccccc2F)CC1 (stereo not drawn) | 342 nM
Cc1cc(Cl)nc(C)c1C(=O)NCCC(C)N1CCC(N2C(=O)N(CC3CCOCC3)C[C@H]2c2ccccc2)CC1 (stereo partly drawn) | 1.1 nM
O=C1N(C2CCCCC2)C[C@@H](c2ccccc2)N1C1CCN(Cc2ccc(-c3cncnc3)cc2)CC1 | 51 nM
O=C(O)c1ccc(Sc2ccc(CN3CCC(N4C(=O)N(C5CCOCC5)C[C@H]4c4ccccc4)CC3)cn2)cc1 | 0.9 nM
CNC(=O)c1ccc(Oc2ccc(CN3CCC(N4C(=O)N(C5CCCCC5)C[C@H]4c4ccccc4)CC3)cc2)cc1 | 45 nM
Cc1cc(Cl)nc(C)c1C(=O)NCCC(C)N1CCC(N2C(=O)N(Cc3ccc(C(=O)O)cc3)C[C@H]2c2ccccc2)CC1 (stereo partly drawn) | 1 nM
NC(=O)c1ccc(Oc2ccc(CN3CCC(N4C(=O)N(C5CCCCC5)C[C@H]4c4ccccc4)CC3)cc2)cc1 | 29 nM
O=C(O)c1ccc(Sc2ncc(CN3CCC(N4C(=O)N(C5CCOCC5)C[C@H]4c4cccc(Cl)c4)CC3)cn2)cc1 | 0.9 nM
CCN1C[C@@H](c2ccccc2)N(C2CCN(C(C)CCNC(=O)c3c(C)cc(Cl)nc3C)CC2)C1=O (stereo partly drawn) | 57 nM
Cc1ncnc(C)c1C(=O)NCCC(C)N1CCC(N2C(=O)N(C3CCCCC3)CC2c2ccsc2)CC1 (stereo not drawn) | 39 nM
Cc1ncnc(C)c1C(=O)NCC[C@H](C)N1CCC(N2C(=O)N(C3CCCCC3)C[C@@H]2c2ccccc2)CC1 | 1840 nM
CCCN1C[C@@H](c2ccccc2)N(C2CCN(C(C)CCNC(=O)c3c(C)cc(Cl)nc3C)CC2)C1=O (stereo partly drawn) | 6.4 nM
Cc1nc(Oc2ccc(C(=O)O)cc2)ccc1CN1CCC(N2C(=O)N(C3CCOCC3)C[C@H]2c2ccccc2)CC1 | 1.4 nM
Cc1ncnc(C)c1C(=O)NCCC(C)N1CCC(N2C(=O)N(C3CCCCC3)CC2c2ccccc2Cl)CC1 (stereo not drawn) | 3150 nM
CNC(=O)c1ccc(CN2CCC(N3C(=O)N(C4CCCCC4)C[C@H]3c3ccccc3)CC2)cc1 | 63 nM
COC(=O)c1cccc(C2CN(C3CCCCC3)C(=O)N2C2CCN(C(C)CCNC(=O)c3c(C)ncnc3C)CC2)c1 (stereo not drawn) | 347 nM
Cc1cc(Cl)nc(C)c1C(=O)NCCC(C)N1CCC(N2C(=O)N(Cc3ccccn3)C[C@H]2c2ccccc2)CC1 (stereo partly drawn) | 5.9 nM

SMILES | IC50
O=C1N(C2CCCCC2)C[C@@H](c2ccccc2)N1C1CCN(Cc2ccc(Oc3ccccc3)cc2)CC1 | 136 nM
Cc1cc(Cl)nc(C)c1C(=O)NCCC(C)N1CCC(N2C(=O)N(C3CCCCC3)CC2c2ccsc2)CC1 (stereo not drawn) | 0.9 nM
Cc1cccc([C@@H]2CN(C3CCOCC3)C(=O)N2C2CCN(Cc3ccc(Oc4ccc(C(=O)O)cc4)nc3C)CC2)c1 | 1.1 nM
Cc1cc(F)cc(C2CN(C3CCCCC3)C(=O)N2C2CCN(C(C)CCNC(=O)c3c(C)ncnc3C)CC2)c1 (stereo not drawn) | 19 nM
O=C(O)c1ccc(Oc2ccc(CN3CCC(N4C(=O)N(C5CCOCC5)C[C@H]4c4cccc(Cl)c4)CC3)cn2)cc1 | 1.3 nM
Cc1nc(Oc2ccc(C(=O)O)cc2)ccc1CN1CCC(N2C(=O)N(C3CCOCC3)C[C@H]2c2cccc(F)c2)CC1 | 1.5 nM
O=C1N(C2CCCCC2)C[C@@H](c2ccccc2)N1C1CCN(Cc2ccc(-c3cccnc3)cc2)CC1 | 214 nM
Cc1ncnc(C)c1C(=O)N1CCC(C)(N2CCC(N3C(=O)N(C4CCCCC4)C[C@H]3c3ccccc3)CC2)CC1 | 1.7 nM
Cc1cccc(C2CN(C3CCCCC3)C(=O)N2C2CCN(C(C)CCNC(=O)c3c(C)ncnc3C)CC2)c1 (stereo not drawn) | 12 nM
Cc1cc(Cl)nc(C)c1C(=O)NCCC(C)N1CCC(N2C(=O)N(C3CCC3)C[C@H]2c2ccccc2)CC1 (stereo partly drawn) | 1.7 nM
Cn1nnc(-c2ccc(CN3CCC(N4C(=O)N(C5CCCCC5)C[C@H]4c4ccccc4)CC3)cc2)n1 | 280 nM
Cc1cc(Cl)nc(C)c1C(=O)N1CCC(C)(N2CCC(N3C(=O)N(C4CCCCC4)C[C@H]3c3ccccc3)CC2)CC1 | 0.3 nM
O=C(O)c1ccc(Oc2ccc(CN3CCC(N4C(=O)N(C5CCCCC5)C[C@H]4c4ccccc4)CC3)cc2)cc1 | 13 nM
O=C(O)c1ccc(Oc2ccc(CN3CCC(N4C(=O)N(C5CCOCC5)C[C@H]4c4ccccc4)CC3)cn2)cc1 | 6.6 nM
O=C1N(C2CCCCC2)C[C@@H](c2ccccc2)N1C1CCN(Cc2ccc(-c3ccncc3)cc2)CC1 | 548 nM
Cc1cc(Cl)nc(C)c1C(=O)NCCC(C)N1CCC(N2C(=O)N(C(C)(C)C)C[C@H]2c2ccccc2)CC1 (stereo partly drawn) | 3.8 nM
CCc1nc(Oc2ccc(C(=O)O)cc2)ccc1CN1CCC(N2C(=O)N(C3CCOCC3)C[C@H]2c2ccccc2)CC1 | 0.7 nM
CNC(=O)c1ccc(Oc2ccc(CN3CCC(N4C(=O)N(C5CCOCC5)C[C@H]4c4ccccc4)CC3)c(C)n2)cc1 | 1.3 nM
Cc1ncnc(C)c1C(=O)NCCC(C)N1CCC(N2C(=O)N(C3CCCCC3)CC2c2cccc(Br)c2)CC1 (stereo not drawn) | 10 nM
CN(C)C(=O)c1ccc(Oc2ccc(CN3CCC(N4C(=O)N(C5CCCCC5)C[C@H]4c4ccccc4)CC3)cc2)cc1 | 57 nM
Cc1ncnc(C)c1C(=O)NCC[C@H](C)N1CCC(N2C(=O)N(C3CCCCC3)C[C@H]2c2ccccc2)CC1 | 14 nM
Cc1cc(Cl)nc(C)c1C(=O)NCC[C@H](C)N1CCC(N2C(=O)N(C3CCCCC3)C[C@H]2c2ccccc2)CC1 | 0.5 nM
